Results taken from patent US11306313B2, “Peptide, complex of peptide and siRNA, and methods of use thereof” (Positec Power Tools (Suzhou) Co., Ltd, priority 2013, dated 2022).
Where a SMILES comes first, the peptide text is derived from it.

What was measured:
[1] = Cytotoxicity test (CCK8 cell viability); format: cell-based; conditions: CHO-K1 cells, FIG. 5, molar ratio 20/1 and 40/1, siRNA 50 nM, read-out: cell survival rate
Procedure: CHO-K1 cells were seeded at 5,000-8,000 cells/well in clear, flat-bottomed, 96-well plates in triplicate and grown for 24 h at 37° C. with 5% CO2. The complexes or control samples were added to the cells in 150 μl of standard media and the cells were incubated for 48 h. The CCK8 assay was used to determine cell viability, according to the manufacturer's instructions. Briefly, […] of CCK8 stock was added to each well and incubated for 2 h at 37° C. in 5% CO2. Then, the cultures were removed from the incubator and the absorbance at 570 nm was read on a plate reader (FLUOstar OPTIMA, BMG, Germany). The background absorbance of the multiwell plates at 690 nm was determined and subtracted from the 570 nm measurement. The results obtained from triplicate wells were averaged and normalized using the value obtained for non-treated cells.

[2] = Cell absorption test; format: cell-based
[3] = reported in WO2013/075244 A1; cited from earlier work
[4] = reported in WO2013/075244 A1; cited from earlier work; remark: listed apart in the source

## CC(=O)NCC(=O)N[C@@H](CC(C)C)C(=O)N[C@@H](Cc1c[nH]c2ccccc12)C(=O)N[C@@H](Cc1c[nH]cn1)C(=O)N[C@@H](C)C(=O)N[C@@H](Cc1c[nH]c2ccccc12)C(=O)N[C@@H](CC(C)C)C(=O)N[C@@H](Cc1c[nH]c2ccccc12)C(=O)N[C@@H](Cc1c[nH]cn1)C(=O)N[C@@H](C)C(=O)N[C@@H](Cc1ccccc1)C(=O)N[C@@H](CC(C)C)C(=O)N[C@@H](C)C(=O)N[C@@H](CO)C(=O)N[C@@H](Cc1c[nH]cn1)C(=O)N[C@@H](CCCNC(=N)N)C(=O)N[C@@H](CC(C)C)C(=O)N[C@@H](CC(C)C)C(=O)N[C@@H](CCCNC(=N)N)C(=O)N[C@@H](CC(C)C)C(=O)N[C@@H](CC(C)C)C(=O)N[C@@H](CCCNC(=N)N)C(N)=O [GL5, CH3CONH-GLWHAWLWHAFLASHR LLRLLR-CONH2] (Ac-GLWHAWLWHAFLASHRLLRLLR-NH2)
[1]
  viability at 48 h: ~105%

## CH3(CH2)16CONH-HHHHHHHHHHHHHHHHRRRRRRRR-CONH2 (stearyl-HHHHHHHHHHHHHHHHRRRRRRRR-NH2) [STR-HR]
[2]
  absorption efficiency compared with lipid 2000: higher than that of lipid 2000

## GLWRAWLWKAFLASNWRRLLRLLR (Synthetic sequence - peptide GL1)
[3]
  siRNA delivery (uptake) efficiency: about 95%
[4]
  gene silencing efficiency: about 50%
